Measurements published in patent publication US11986471B2, “Compounds and methods of use” (Tango Therapeutics, Inc., priority 2018, dated 2024).

Columns and labels:
PRMT5 [1] = target: T1, PRMT5 (Homo sapiens, UniProt O14744); assay: PRMT5 IC50 assay in the presence of SAM as cofactor; assay type: biochemical
T1 construct: purchased Viva (custom protein)
Method in brief: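 Three cofactor conditions are run: SAM-bound, MTA-bound and cofactor-free enzyme. IC50 is read from each; for the SAM and MTA arms it is divided by 1.5 and 13.5 respectively to give Ki.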

PRMT5 [2] = target: T1, PRMT5; assay: PRMT5 IC50 assay with no cofactor; assay type: biochemical
Method in brief: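 IC50 against PRMT5 determined with SAM as cofactor, with no cofactor, and with MTA as cofactor. Ki derived as IC50/1.5 for the SAM assay and IC50/13.5 for the MTA assay; SAM Ki to MTA Ki ratio also reported.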

PRMT5 [3] = target: T1, PRMT5; assay: PRMT5 IC50 assay in the presence of MTA as cofactor; assay type: biochemical; conditions: for IC50: PRMT5, MTA as cofactor; for SAM/MTA Ratio: ratio between the Ki in the presence of SAM and the Ki in the presence of MTA
Method in brief: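 Each compound is tested on PRMT5 in the presence of SAM, of MTA, and without any cofactor. Ki values are then back-calculated using fixed factors of 1.5 (SAM) and 13.5 (MTA), and the two Ki values are compared as a ratio.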

HAP1 MTAP-intact = assay: SDMA in-cell western assay, HAP1 MTAP-intact cell line; assay type: cell-based; conditions: Homo sapiens
Method in brief: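 Symmetric dimethylarginine (SDMA) levels were measured by in-cell western in an isogenic HAP1 pair, one expressing endogenous MTAP and one MTAP-null, and IC50 values were derived for each line. Compounds whose IC50 ratio between the lines is 3-fold or more are classed as MTAP-selective.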

HAP1 MTAP-deleted = assay: SDMA in-cell western assay, HAP1 MTAP-deleted cell line; assay type: cell-based; conditions: for IC50: Homo sapiens, HAP1 MTAP-deleted cell line; for MTAP Intact/Deleted Ratio: IC50 ratio HAP1 MTAP-intact / HAP1 MTAP-deleted
Method in brief: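 Symmetric dimethylarginine (SDMA) levels were measured by in-cell western in MTAP-null HAP1 cells, one half of an MTAP-isogenic pair whose partner line expresses endogenous MTAP. Compound potency is reported as IC50.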

T1 sequence (O14744 whole entry): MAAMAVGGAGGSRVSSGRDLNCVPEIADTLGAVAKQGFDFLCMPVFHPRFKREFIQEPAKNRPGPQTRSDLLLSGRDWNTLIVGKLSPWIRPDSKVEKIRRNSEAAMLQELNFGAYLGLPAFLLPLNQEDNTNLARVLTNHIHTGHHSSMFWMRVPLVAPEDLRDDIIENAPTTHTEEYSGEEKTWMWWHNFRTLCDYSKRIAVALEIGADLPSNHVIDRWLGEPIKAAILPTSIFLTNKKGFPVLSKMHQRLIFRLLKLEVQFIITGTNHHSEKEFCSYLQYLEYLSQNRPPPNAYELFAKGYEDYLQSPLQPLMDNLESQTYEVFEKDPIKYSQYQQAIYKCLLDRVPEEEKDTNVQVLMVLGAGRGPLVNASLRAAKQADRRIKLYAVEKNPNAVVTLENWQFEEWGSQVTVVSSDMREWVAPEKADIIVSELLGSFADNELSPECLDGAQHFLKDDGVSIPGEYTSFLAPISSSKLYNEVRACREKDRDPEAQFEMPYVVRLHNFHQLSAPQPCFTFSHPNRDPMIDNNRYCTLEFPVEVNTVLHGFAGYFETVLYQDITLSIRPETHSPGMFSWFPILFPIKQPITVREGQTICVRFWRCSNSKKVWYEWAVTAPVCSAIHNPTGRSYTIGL
T1 sequence (Q9BQA1 whole entry partner): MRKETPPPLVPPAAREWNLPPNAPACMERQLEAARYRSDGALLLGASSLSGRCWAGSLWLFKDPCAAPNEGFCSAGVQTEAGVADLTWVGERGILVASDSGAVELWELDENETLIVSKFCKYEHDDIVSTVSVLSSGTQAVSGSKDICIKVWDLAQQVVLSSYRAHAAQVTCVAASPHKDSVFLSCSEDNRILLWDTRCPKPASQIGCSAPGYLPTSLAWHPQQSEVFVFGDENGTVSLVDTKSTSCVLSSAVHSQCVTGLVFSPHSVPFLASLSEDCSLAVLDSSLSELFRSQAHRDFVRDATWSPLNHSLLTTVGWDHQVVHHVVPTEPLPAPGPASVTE

SMILES	IC50 (PRMT5 [1])	IC50 (PRMT5 [2])	IC50 (PRMT5 [3])	SAM/MTA Ratio (PRMT5 [3])	IC50 (HAP1 MTAP-intact)	IC50 (HAP1 MTAP-deleted)	MTAP Intact/Deleted Ratio (HAP1 MTAP-deleted)
CCN1CCN(c2nc(NC3COC3)cc(C(=O)NC[C@H](O)CN3CCc4cc(OCc5ocnc5C)ccc4C3)n2)CC1 [Compound 544, 2-(4-ethylpiperazin-1-yl)-N-[(2S)-2-hydroxy-3-(6-[(4-methyl-1,3-oxazol-5-yl)methoxy]-1,2,3,4-tetrahydroisoquinolin-2-yl}propyl]-6-[(oxetan-3-yl)amino]pyrimidine-4-carboxamide]	0.05 to 0.5 µM	0.5 to 5 µM	0.05 to 0.5 µM	A (a Ki ratio greater than or equal to 10 fold between the Ki in the presence of SAM and the Ki in the presence of MTA)	1 to 10 µM	1 to 10 µM	B* (an IC50 ratio greater than or equal to 3 fold but lower than 10 fold between the IC50 in the HAP1 MTAP-intact cell line and the HAP1 MTAP-deleted cell line)
CC(=O)N1CCN(c2cc(C(=O)NC[C@H](O)CN3CCc4c(ccc(OCc5cnco5)c4Cl)C3)cc(NC3CCC3)n2)CC1 [Compound 545, (S)-2-(4-acetylpiperazin-1-yl)-N-(3-(5-chloro-6-(oxazol-5-ylmethoxy)-3,4-dihydroisoquinolin-2(1H)-yl)-2-hydroxypropyl)-6-(cyclobutylamino)isonicotinamide]	0.05 to 0.5 µM	0.5 to 5 µM	0.05 to 0.5 µM	A (a Ki ratio greater than or equal to 10 fold between the Ki in the presence of SAM and the Ki in the presence of MTA)	≥ 10 µM	1 to 10 µM	B* (an IC50 ratio greater than or equal to 3 fold but lower than 10 fold between the IC50 in the HAP1 MTAP-intact cell line and the HAP1 MTAP-deleted cell line)
Cc1c(OCc2cnco2)ccc2c1CCN(C[C@@H](O)CNC(=O)c1ccc3c(c1)CCN(C(=O)c1ccc(Br)cc1)C3)C2 [Compound 546]	0.05 to 0.5 µM	0.5 to 5 µM	0.05 to 0.5 µM		≥ 10 µM	≥ 10 µM	C* (an IC50 ratio of less than 3 fold between the IC50 in the HAP1 MTAP-intact cell line and the HAP1 MTAP-deleted cell line)
COc1ccc(C(=O)N2CCc3cc(C(=O)NC[C@H](O)CN4CCc5cc(OCc6cnco6)ccc5C4)ccc3C2)cc1 [Compound 547, (S)—N-(2-hydroxy-3-(6-(oxazol-5-ylmethoxy)-3,4-dihydroisoquinolin-2(1H)-yl)propyl)-2-(4-methoxybenzoyl)-1,2,3,4-tetrahydroisoquinoline-6-carboxamide]	0.05 to 0.5 µM	0.5 to 5 µM	0.05 to 0.5 µM	A (a Ki ratio greater than or equal to 10 fold between the Ki in the presence of SAM and the Ki in the presence of MTA)	1 to 10 µM	1 to 10 µM	C* (an IC50 ratio of less than 3 fold between the IC50 in the HAP1 MTAP-intact cell line and the HAP1 MTAP-deleted cell line)
CC(=O)N1CCC(Nc2cncc(C(=O)NC[C@H](O)CN3CCc4cc(OCc5cnco5)ccc4C3)c2)CC1 [Compound 549, (S)-5-((1-acetylpiperidin-4-yl)amino)-N-(2-hydroxy-3-(6-(oxazol-5-ylmethoxy)-3,4-dihydroisoquinolin-2(1H)-yl)propyl)nicotinamide]	0.05 to 0.5 µM	0.5 to 5 µM	0.05 to 0.5 µM	A (a Ki ratio greater than or equal to 10 fold between the Ki in the presence of SAM and the Ki in the presence of MTA)	≥ 10 µM	≥ 10 µM	C* (an IC50 ratio of less than 3 fold between the IC50 in the HAP1 MTAP-intact cell line and the HAP1 MTAP-deleted cell line)
Cc1c(OCc2cnco2)ccc2c1CCN(C[C@@H](O)CNC(=O)c1ccnc(NC3CN(C(=O)C(C)C)C3)c1)C2 [Compound 550]	0.05 to 0.5 µM	≥ 5 µM	0.05 to 0.5 µM	A (a Ki ratio greater than or equal to 10 fold between the Ki in the presence of SAM and the Ki in the presence of MTA)	≥ 10 µM	≥ 10 µM	C* (an IC50 ratio of less than 3 fold between the IC50 in the HAP1 MTAP-intact cell line and the HAP1 MTAP-deleted cell line)
CCCC(=O)N1CC(Nc2cc(C(=O)NC[C@H](O)CN3CCc4c(ccc(OCc5cnco5)c4C)C3)ccn2)C1 [Compound 551, (S)-2-((1-butyrylazetidin-3-yl)amino)-N-(2-hydroxy-3-(5-methyl-6-(oxazol-5-ylmethoxy)-3,4-dihydroisoquinolin-2(1H)-yl)propyl)isonicotinamide]	0.05 to 0.5 µM	0.5 to 5 µM	0.05 to 0.5 µM	A (a Ki ratio greater than or equal to 10 fold between the Ki in the presence of SAM and the Ki in the presence of MTA)	≥ 10 µM	≥ 10 µM	C* (an IC50 ratio of less than 3 fold between the IC50 in the HAP1 MTAP-intact cell line and the HAP1 MTAP-deleted cell line)
COCCN(C)c1cc(C(=O)NC[C@H](O)CN2CCc3cc(OCc4ocnc4C)ccc3C2)cc(NC2CCC2)n1 [Compound 554]	0.05 to 0.5 µM	0.5 to 5 µM	0.05 to 0.5 µM	A (a Ki ratio greater than or equal to 10 fold between the Ki in the presence of SAM and the Ki in the presence of MTA)	< 1 µM	< 1 µM	C* (an IC50 ratio of less than 3 fold between the IC50 in the HAP1 MTAP-intact cell line and the HAP1 MTAP-deleted cell line)
Cc1ncoc1COc1ccc2c(c1C)CCN(C[C@@H](O)CNC(=O)c1cc(NC3CCC3)ccn1)C2 [Compound 555, 4-(cyclobutylamino)-N-[(2S)-2-hydroxy-3-{5-methyl-6-[(4-methyl-1,3-oxazol-5-yl)methoxy]-1,2,3,4-tetrahydroisoquinolin-2-yl}propyl]pyridine-2-carboxamide]	0.05 to 0.5 µM	≥ 5 µM	0.05 to 0.5 µM	A (a Ki ratio greater than or equal to 10 fold between the Ki in the presence of SAM and the Ki in the presence of MTA)	≥ 10 µM	1 to 10 µM	C* (an IC50 ratio of less than 3 fold between the IC50 in the HAP1 MTAP-intact cell line and the HAP1 MTAP-deleted cell line)
CC(=O)N1CCN(c2cc(C(=O)NC[C@H](O)CN3CCc4cc(OCc5ocnc5C)ccc4C3)cc(NC3CCC3)n2)CC1 [Compound 556, 2-(4-acetylpiperazin-1-yl)-6-(cyclobutylamino)-N-[(2S)-2-hydroxy-3-{6-[(4-methyl-1,3-oxazol-5-yl)methoxy]-1,2,3,4-tetrahydroisoquinolin-2-yl}propyl]pyridine-4-carboxamide]	0.05 to 0.5 µM	0.5 to 5 µM	0.05 to 0.5 µM	A (a Ki ratio greater than or equal to 10 fold between the Ki in the presence of SAM and the Ki in the presence of MTA)	< 1 µM	< 1 µM	B* (an IC50 ratio greater than or equal to 3 fold but lower than 10 fold between the IC50 in the HAP1 MTAP-intact cell line and the HAP1 MTAP-deleted cell line)
CC(=O)N1CCC(Nc2ccnc(C(=O)NC[C@H](O)CN3CCc4c(ccc(OCc5cnco5)c4C)C3)c2)CC1 [Compound 559]	0.05 to 0.5 µM	0.5 to 5 µM	0.05 to 0.5 µM	A (a Ki ratio greater than or equal to 10 fold between the Ki in the presence of SAM and the Ki in the presence of MTA)	≥ 10 µM	1 to 10 µM	C* (an IC50 ratio of less than 3 fold between the IC50 in the HAP1 MTAP-intact cell line and the HAP1 MTAP-deleted cell line)
CCCC(=O)N1CCC(Nc2cc(C(=O)NC[C@H](O)CN3CCc4c(ccc(OCc5cnco5)c4C)C3)ncn2)CC1 [Compound 560, 6-[(1-butanoylpiperidin-4-yl)amino]-N-[(2S)-2-hydroxy-3-{5-methyl-6-[(1,3-oxazol-5-yl)methoxy]-1,2,3,4-tetrahydroisoquinolin-2-yl}propyl]pyrimidine-4-carboxamide]	0.05 to 0.5 µM	0.5 to 5 µM	0.05 to 0.5 µM	A (a Ki ratio greater than or equal to 10 fold between the Ki in the presence of SAM and the Ki in the presence of MTA)	≥ 10 µM	1 to 10 µM	B* (an IC50 ratio greater than or equal to 3 fold but lower than 10 fold between the IC50 in the HAP1 MTAP-intact cell line and the HAP1 MTAP-deleted cell line)
O=C(NC[C@H](O)CN1CCc2cc(OCc3cnco3)ccc2C1)c1ccc2c(c1)CCN(C(=O)c1ccc(Br)cc1)C2 [Compound 561]	0.05 to 0.5 µM	0.5 to 5 µM	0.05 to 0.5 µM	A (a Ki ratio greater than or equal to 10 fold between the Ki in the presence of SAM and the Ki in the presence of MTA)	≥ 10 µM	1 to 10 µM	B* (an IC50 ratio greater than or equal to 3 fold but lower than 10 fold between the IC50 in the HAP1 MTAP-intact cell line and the HAP1 MTAP-deleted cell line)
